Structures can show the parent of a compound that is named as a salt.
Legend:
[1] = molecular target: KPC-3 β-lactamase (class A) (Klebsiella pneumoniae, UniProt Q9F663, H272Y); test: Inhibitory activity against β-lactamases (nitrocefin), KPC-3; type: biochemical, K. pneumoniae
Protocol: (§1) More diluted stocks were prepared as necessary. Enzyme activity was determined by monitoring the change of absorbance at 492 nm using the characteristic molecular extinction coefficient (Δε492=17,400 M^−1 cm^−1) of nitrocefin by a Shimazu UV-1650PC spectrophotometer. The nitrocefin was purchased from OXOID. Kinetic measurements were run at 30° C. in 10 mM MES[2-(N-morpholino)ethanesulfonic acid]buffer (pH 6.8) or 10 mM MES[2-(N-morpholino)ethanesulfonic acid] buffer (pH 6.8), […] BSA and 50 mM sodium bicarbonate. Reactions were performed in 2.5 mL cuvettes with 100 μM nitrocefin and initiated by adding 1.5 nM to 2.5 nM enzyme. The first 180 s of each reaction was used to measure initial rates. Data were evaluated using Microsoft Excel. Concentration dependent inhibition of enzyme was measured using different concentrations of inhibitors resulting from two-fold dilution series. Reaction progress at every concentration of inhibitor was measured in triplicates. IC50 values were calculated using 4-parameter log fits using XL Fit curve fitting software (www.idbs.com) for Excel using the following equation:
(§2) [formula] where y is the remaining enzyme activity (in %) and x is the corresponding concentration. he fitted IC50 parameter is the relative IC50, and is defined as the concentration giving a response half way between the fitted top (B) and bottom (A) of the curve.

E. aerogenes K9911729 = test: MIC of strain used for extraction of enzymes, E. aerogenes K9911729 (CMY-10, TEM-1, SHV-12, AmpC (DQ478697)); type: cell-based
Mouse pharmacokinetics = type: in vivo, ICR mouse; details: IV, 50 mg/kg, plasma
Protocol: The pharmacokinetics values were evaluated in a mouse model. The test compound (50 mg/kg) was injected into the tail vein of 8 week old ICR mouse, weighing approximately 26-30 g. […] Lab conditions were temperature of 22±3° C. and humidity of 50±20%.

[2] = molecular target: T1, CMY-10 β-lactamase (class C) (Klebsiella aerogenes, UniProt Q99QC1); test: Inhibitory activity against β-lactamases (nitrocefin), CMY-10; type: biochemical
T1 construct: MICs of bacterial strains used for extraction of enzymes; endogenous in cells
Protocol: as §1, §2

[3] = molecular target: T2, OXA-48 β-lactamase (class D) (Klebsiella pneumoniae, UniProt Q6XEC0); test: Inhibitory activity against β-lactamases (nitrocefin), OXA-48; type: biochemical; details: 100 μM nitrocefin, 30° C., pH 6.8
T2 construct: MICs of bacterial strains used for extraction of enzymes; endogenous in cells; host or cells: bacterial strain carrying OXA-48 (E. coli according to the earlier reading)
Protocol: as §1, §2

E. coli K0519020 = test: MIC of strain used for extraction of enzymes, E. coli K0519020 (CTX-M-15, TEM-1, OXA-1, AmpC (NC_000913)); type: cell-based
K. pneumoniae CL5761 = test: MIC of strain used for extraction of enzymes, K. pneumoniae CL5761 (KPC-3, TEM-216, SHV-5); type: cell-based; details: BLI: 4 ug/mL
Protocol: MIC90 (μg/mL) is the lowest concentration of an antibiotic that will inhibit the visible growth of 90% of microorganisms after incubation as compared with a control group to which the antibiotic is not treated.
MIC values were measured by the broth microdilution method developed by the Clinical and Laboratory Standards Institute (CLSI) (see CLSI M07-A9, Methods for Dilution Antimicrobial Susceptibility Test for Bacteria that Grow Aerobically; Approved Standard-Ninth Edition (2012): CLSI, Villanova, Pa.). The in vitro antibacterial activity was measured with respect to the following 9 clinical isolates: P. aeruginosa (3 strains); K. pneumoniae (6 strains). The in vitro antibacterial activity of selected compounds was measured with respect to the following 15 clinical isolates: K. pneumoniae (15 strains).

[4] = molecular target: T3, NDM-1 β-lactamase (class B) (Klebsiella pneumoniae, UniProt C7C422); test: Inhibitory activity against β-lactamases (nitrocefin), NDM-1; type: biochemical; details: 100 μM nitrocefin, 30° C., pH 6.8
T3 construct: MICs of bacterial strains used for extraction of enzymes; endogenous in cells; host or cells: bacterial strain carrying NDM-1 (E. coli according to the earlier reading)
Protocol: as §1, §2

E. coli TOPDXA048 = test: MIC of strain used for extraction of enzymes, E. coli TOPDXA048 (OXA-48, TEM-116, AmpC (NC_000913)); type: cell-based
E. coli ECO200 = test: MIC of strain used for extraction of enzymes, E. coli ECO200 (NDM-1, TEM-1, CTX-M-15, EC (AmpC), OXA-2 type); type: cell-based

T2 sequence (Q6XEC0 23-265, looked up): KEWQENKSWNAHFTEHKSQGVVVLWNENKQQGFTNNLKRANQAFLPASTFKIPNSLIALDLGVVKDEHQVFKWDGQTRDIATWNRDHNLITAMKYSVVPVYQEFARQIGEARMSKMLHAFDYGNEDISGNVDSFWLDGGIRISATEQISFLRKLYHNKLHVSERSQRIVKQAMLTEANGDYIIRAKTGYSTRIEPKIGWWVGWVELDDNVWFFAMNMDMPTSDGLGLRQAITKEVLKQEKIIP
T1 sequence (Q99QC1 24-382): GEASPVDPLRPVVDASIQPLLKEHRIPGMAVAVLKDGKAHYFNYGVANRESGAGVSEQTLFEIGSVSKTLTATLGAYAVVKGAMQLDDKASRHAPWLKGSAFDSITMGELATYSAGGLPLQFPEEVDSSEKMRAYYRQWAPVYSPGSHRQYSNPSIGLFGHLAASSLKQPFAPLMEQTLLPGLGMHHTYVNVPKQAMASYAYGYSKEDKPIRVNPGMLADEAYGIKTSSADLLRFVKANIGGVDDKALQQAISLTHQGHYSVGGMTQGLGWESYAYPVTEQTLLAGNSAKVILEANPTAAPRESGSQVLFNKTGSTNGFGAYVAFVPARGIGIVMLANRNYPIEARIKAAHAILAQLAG
T3 sequence (C7C422 29-270, looked up): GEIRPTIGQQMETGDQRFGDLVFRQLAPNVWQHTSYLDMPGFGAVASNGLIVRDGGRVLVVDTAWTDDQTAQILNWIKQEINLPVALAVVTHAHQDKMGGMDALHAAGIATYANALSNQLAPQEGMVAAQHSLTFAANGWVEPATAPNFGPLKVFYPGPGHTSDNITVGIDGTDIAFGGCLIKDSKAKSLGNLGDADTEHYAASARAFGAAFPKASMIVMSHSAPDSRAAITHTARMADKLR
KPC-3 β-lactamase (class A), sequence (Q9F663 25-293 H272Y): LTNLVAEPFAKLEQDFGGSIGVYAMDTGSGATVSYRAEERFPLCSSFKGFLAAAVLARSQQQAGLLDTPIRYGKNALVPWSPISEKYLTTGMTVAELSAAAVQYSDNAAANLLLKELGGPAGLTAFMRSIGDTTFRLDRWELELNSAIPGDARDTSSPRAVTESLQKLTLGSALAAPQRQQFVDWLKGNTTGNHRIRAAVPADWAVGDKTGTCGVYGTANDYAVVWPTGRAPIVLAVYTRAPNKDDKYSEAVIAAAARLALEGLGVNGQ

Q: Which results are given for `O=C1N2C[C@@H](CC[C@H]2C2=NO[C@]3(CCNC3)C2)N1OS(=O)(=O)O` [Example 17, [(2S,5R)-2-[(5R)-1-oxa-2,7-diazaspiro[4.4]non-2-en-3-yl]-7-oxo-1,6-diazabicyclo[3.2.1]octan-6-yl] hydrogen sulfate]?
A: IC50 [1]: 2740 nM; MIC of Meropenem with BLI (E. aerogenes K9911729; BLI: 4 ug/mL): <0.0312 µg/mL; MIC (E. aerogenes K9911729; Klebsiella aerogenes, K9911729, read-out: MIC of LCB10-0200 with BLI): < 0.0312 µg/mL; AUC(0-inf) (Mouse pharmacokinetics; ICR): 31000 ± 500 ng·h/mL; Cmax (Mouse pharmacokinetics; ICR): 64.2 ± 3.88 µg/mL; Tmax (Mouse pharmacokinetics; ICR): 4.8 min; clearance (Mouse pharmacokinetics; ICR): 27 mL/min/kg; half-life (Mouse pharmacokinetics; ICR): 75 ± 9 min; Vd (Mouse pharmacokinetics; ICR, read-out: Vss): 1.81 ± 0.14 L/kg; AUCnorm (Mouse pharmacokinetics): 0.62 ± 0.01 kg·h/L; Cmax, norm (Mouse pharmacokinetics): 1.28 ± 0.08 kg/L; IC50 [2]: 185 nM; IC50 [3]: 29.5 µM; MIC of Meropenem with BLI (E. coli K0519020; BLI: 4 ug/mL): 0.0625 µg/mL; MIC (E. coli K0519020; Escherichia coli, K0519020, read-out: MIC of LCB10-0200 with BLI): < 0.0312 µg/mL; MIC of Meropenem with BLI (K. pneumoniae CL5761): 0.5 µg/mL; MIC (K. pneumoniae CL5761; Klebsiella pneumoniae, CL5761, read-out: MIC of LCB10-0200 with BLI): 0.125 µg/mL; IC50 [4]: 1.19 mM; MIC of Meropenem with BLI (E. coli TOPDXA048; BLI: 4 ug/mL): <0.0312 µg/mL; MIC (E. coli TOPDXA048; Escherichia coli, TOPDXA048, read-out: MIC of LCB10-0200 with BLI): < 0.0312 µg/mL; MIC of Meropenem with BLI (E. coli ECO200; BLI: 4 ug/mL): <0.0312 µg/mL; MIC (E. coli ECO200; Escherichia coli, ECO200, read-out: MIC of LCB10-0200 with BLI): < 0.0312 µg/mL
